Laboratory results taken from ChEMBL document CHEMBL3351528, “Targeting dopamine D3 and serotonin 5-HT1A and 5-HT2A receptors for developing effective antipsychotics: synthesis, biological characterization, and behavioral studies” (J Med Chem, 2014).

How the values were obtained:
D(2) dopamine receptor = D(2) dopamine receptor (Homo sapiens, UniProt P14416)
Description: Binding affinity to dopamine D2 receptor (unknown origin)

[1] = target: 5-hydroxytryptamine receptor 2A (Homo sapiens, UniProt P28223)
Description: Binding affinity to 5HT2A receptor (unknown origin)

D(3) dopamine receptor = D(3) dopamine receptor (Homo sapiens, UniProt P35462)
D(3) dopamine receptor, sequence (P35462 whole entry): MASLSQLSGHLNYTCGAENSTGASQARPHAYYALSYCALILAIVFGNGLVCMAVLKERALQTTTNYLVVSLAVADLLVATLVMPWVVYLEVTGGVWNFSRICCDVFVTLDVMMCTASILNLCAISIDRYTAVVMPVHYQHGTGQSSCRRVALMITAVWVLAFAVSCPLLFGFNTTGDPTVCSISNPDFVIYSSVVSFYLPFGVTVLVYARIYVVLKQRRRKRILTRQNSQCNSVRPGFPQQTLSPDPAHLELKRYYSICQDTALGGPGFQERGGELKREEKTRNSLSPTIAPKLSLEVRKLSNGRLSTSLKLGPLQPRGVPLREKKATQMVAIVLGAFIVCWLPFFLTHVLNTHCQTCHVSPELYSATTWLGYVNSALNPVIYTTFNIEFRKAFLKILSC
Description: Binding affinity to dopamine D3 receptor (unknown origin)

[2] = target: T1, 5-hydroxytryptamine receptor 1A (Homo sapiens, UniProt P08908)
T1 sequence (P08908 whole entry): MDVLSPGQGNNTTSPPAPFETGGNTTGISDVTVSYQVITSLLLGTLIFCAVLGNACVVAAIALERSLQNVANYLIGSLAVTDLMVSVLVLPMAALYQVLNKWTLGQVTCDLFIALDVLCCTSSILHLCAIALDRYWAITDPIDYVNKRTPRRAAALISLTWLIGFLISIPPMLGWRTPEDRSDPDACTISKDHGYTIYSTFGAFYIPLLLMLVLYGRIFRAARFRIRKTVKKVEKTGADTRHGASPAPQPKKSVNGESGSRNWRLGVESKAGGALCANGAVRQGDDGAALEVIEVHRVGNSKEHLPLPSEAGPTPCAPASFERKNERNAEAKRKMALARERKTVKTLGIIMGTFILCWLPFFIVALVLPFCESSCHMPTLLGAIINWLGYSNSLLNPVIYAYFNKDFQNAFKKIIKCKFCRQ
Description: Binding affinity to 5HT1A receptor (unknown origin)

[3] = target: T2, 5-hydroxytryptamine receptor 2C (Homo sapiens, UniProt P28335)
T2 sequence (P28335 whole entry): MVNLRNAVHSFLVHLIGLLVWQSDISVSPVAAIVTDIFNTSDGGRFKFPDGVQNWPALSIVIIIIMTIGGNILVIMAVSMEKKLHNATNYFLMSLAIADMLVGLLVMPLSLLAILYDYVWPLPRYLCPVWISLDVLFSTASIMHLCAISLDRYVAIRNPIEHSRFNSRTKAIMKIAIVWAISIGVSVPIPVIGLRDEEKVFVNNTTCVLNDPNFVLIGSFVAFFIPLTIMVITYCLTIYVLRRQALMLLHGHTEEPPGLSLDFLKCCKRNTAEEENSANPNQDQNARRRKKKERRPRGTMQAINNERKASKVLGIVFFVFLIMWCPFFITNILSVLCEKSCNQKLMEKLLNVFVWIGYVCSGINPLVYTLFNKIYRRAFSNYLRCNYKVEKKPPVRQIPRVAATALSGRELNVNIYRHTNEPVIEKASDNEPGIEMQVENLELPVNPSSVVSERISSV
Description: Binding affinity to 5HT2C receptor (unknown origin)

Mus musculus [4] = test: Effect on spontaneous exploratory locomotor activity in orally dosed NMRI mouse measured for 30 mins with activity counts each 5 mins; format: ADME, organism-based; settings: in vivo, po, 0.5 h
Mus musculus [5] = test: Antipsychotic-like activity in orally dosed NMRI mouse assessed as reduction in MK801-induced locomotor activity dosed 15 to 30 mins before administration of MK801 measured for 60 mins; format: functional; settings: po, read-out: MED
Mus musculus [6] = organism: Mus musculus; settings: in vivo, sc, 0.5 h
Description: Effect on spontaneous exploratory locomotor activity in sc dosed NMRI mouse measured for 30 mins with activity counts each 5 mins

Mus musculus [7] = organism: Mus musculus; test: animal or person; settings: NMRI, sc; for minimal effective dose: read-out: MED
Description: Antipsychotic-like activity in sc dosed NMRI mouse assessed as reduction in methamphetamine-induced locomotor activity dosed 15 to 30 mins before administration of methamphetamine measured for 60 mins

Mus musculus [8] = organism: Mus musculus; test: animal or person; settings: NMRI, sc, read-out: MED
Description: Antipsychotic-like activity in sc dosed NMRI mouse assessed as reduction in PCP-induced locomotor activity dosed 15 to 30 mins before administration of methamphetamine measured for 60 mins

Mus musculus [9] = test: Antipsychotic-like activity in sc dosed NMRI mouse assessed as reduction in MK801-induced locomotor activity dosed 15 to 30 mins before administration of MK801 measured for 60 mins; format: functional; settings: read-out: MED
Mus musculus [10] = test: Toxicity in NMRI mouse assessed as induction of tremors at 30 mg/kg, sc dosed 30 mins before test; format: organism-based; parameters: dose 30 mg/kg, route subcutaneous; settings: in vivo, 0.5 h

5-hydroxytryptamine receptor 2A, sequence (P28223 whole entry): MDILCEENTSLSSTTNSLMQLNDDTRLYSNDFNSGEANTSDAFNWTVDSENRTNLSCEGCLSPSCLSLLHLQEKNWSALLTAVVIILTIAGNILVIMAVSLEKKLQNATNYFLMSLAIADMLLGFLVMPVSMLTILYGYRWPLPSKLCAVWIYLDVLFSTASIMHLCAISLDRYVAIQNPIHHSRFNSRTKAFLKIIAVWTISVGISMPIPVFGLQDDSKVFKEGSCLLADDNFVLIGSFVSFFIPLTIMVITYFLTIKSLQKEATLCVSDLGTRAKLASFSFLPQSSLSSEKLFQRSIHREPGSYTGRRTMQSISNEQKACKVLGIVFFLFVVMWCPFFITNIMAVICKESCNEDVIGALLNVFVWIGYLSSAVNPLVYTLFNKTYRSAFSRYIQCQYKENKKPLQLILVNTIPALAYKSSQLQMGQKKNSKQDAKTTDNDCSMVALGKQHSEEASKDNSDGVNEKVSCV
D(2) dopamine receptor, sequence (P14416 whole entry): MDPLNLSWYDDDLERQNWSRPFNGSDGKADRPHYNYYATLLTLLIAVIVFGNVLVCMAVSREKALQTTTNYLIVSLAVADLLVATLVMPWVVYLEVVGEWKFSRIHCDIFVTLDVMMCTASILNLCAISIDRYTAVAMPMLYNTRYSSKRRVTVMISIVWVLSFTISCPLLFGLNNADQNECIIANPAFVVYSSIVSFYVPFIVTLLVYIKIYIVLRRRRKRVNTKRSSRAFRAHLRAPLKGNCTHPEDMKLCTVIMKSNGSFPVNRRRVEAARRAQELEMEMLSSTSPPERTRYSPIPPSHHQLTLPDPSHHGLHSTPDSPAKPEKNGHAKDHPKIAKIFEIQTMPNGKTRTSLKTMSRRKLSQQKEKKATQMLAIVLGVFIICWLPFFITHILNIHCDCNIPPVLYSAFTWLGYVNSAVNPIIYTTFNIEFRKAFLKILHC

Row | SMILES | Ki (D(2) dopamine receptor) | Ki [1] | Ki (D(3) dopamine receptor) | Ki [2] | Ki [3] | MED (Mus musculus [4]) | MED (Mus musculus [6]) | minimal effective dose (Mus musculus [5]) | minimal effective dose (Mus musculus [7]) | minimal effective dose (Mus musculus [8]) | minimal effective dose (Mus musculus [9]) | Activity (Mus musculus [10]) | ED50 (Mus musculus [6]) | ED50 (Mus musculus [7])
1 | COc1cccc(N2CCN(CCCCNC(=O)c3cc4ccccc4o3)CC2)c1 | > 1000 nM | 40 nM | 8.8 nM | 17 nM | 173 nM |  |  |  |  |  |  |  |  | 
2 | O=C(NCCCCN1CCN(c2ccccn2)CC1)c1ccc2ccccc2n1 | > 1000 nM | 69 nM | 186 nM | 24 nM | > 1000 nM |  |  |  |  |  |  |  |  | 
3 | Cc1cccc(N2CCN(CCCCNC(=O)c3ccccn3)CC2)n1 | > 1000 nM | 240 nM | > 1000 nM | 3 nM | > 1000 nM |  |  |  |  |  |  |  |  | 
4 | O=C(NCCCCN1CCN(c2ccccc2)CC1)c1cccnc1 | > 1000 nM | 216 nM | 62 nM | 85 nM | > 1000 nM |  |  |  |  |  |  |  |  | 
5 | O=C(NCCCCN1CCN(c2ncccn2)CC1)c1cc2ccccc2cn1 | > 1000 nM | 1230 nM | 204 nM | 67 nM | > 1000 nM |  |  |  |  |  |  |  |  | 
6 | O=C(NCCCCN1CCN(c2cnc3ccccc3c2)CC1)c1ccccc1 | 1 nM | > 1000 nM | 40 nM | > 1000 nM | > 1000 nM |  |  |  |  |  |  |  |  | 
7 | COc1cccc(N2CCN(CCCCNC(=O)c3ccc4ccccc4n3)CC2)c1 | > 1000 nM | 70 nM | 31 nM | 26 nM | 155 nM |  |  |  |  |  |  |  |  | 
8 | COc1cccc(N2CCN(CCCCNC(=O)c3ccccn3)CC2)c1 | > 1000 nM | 179 nM | 214 nM | 36 nM | > 1000 nM |  |  |  |  |  |  |  |  | 
9 | COc1cccc(N2CCN(CCCCNC(=O)c3cccc(C)n3)CC2)c1 | > 1000 nM | 238 nM | 27 nM | 44 nM | > 1000 nM |  |  |  |  |  |  |  |  | 
10 | O=C(NCCCCN1CCN(c2ccccc2)CC1)[C@H]1CCc2ccccc2N1 | > 1000 nM | 50 nM | 73 nM | 9.9 nM | > 1000 nM |  |  |  |  |  |  |  |  | 
11 | Cc1cccc(N2CCN(CCCCNC(=O)[C@H]3CCc4ccccc4N3)CC2)c1 | 3410 nM | 77 nM | 122 nM | 117 nM | 450 nM |  |  |  |  |  |  |  |  | 
12 | Cc1cccc(N2CCN(CCCCNC(=O)c3ccccc3)CC2)n1 | > 1000 nM | 83 nM | 73 nM | 3 nM | > 1000 nM |  | > 3 mg/kg |  | 1 mg/kg | > 3 mg/kg |  |  |  | 
13 | COc1cccc(N2CCN(CCCCNC(=O)c3ccccn3)CC2)n1 | > 1000 nM | 140 nM | 200 nM | 8 nM | 43 nM |  | > 3 mg/kg |  | 3 mg/kg | 3 mg/kg |  |  |  | 
14 | COc1cccc(N2CCN(CCCCNC(=O)c3cc4ccccc4n3C)CC2)c1 | 219 nM | 311 nM | 1.7 nM | 10 nM | 311 nM |  |  |  |  |  |  |  |  | 
15 | O=C(NCCCCN1CCN(c2ccccc2)CC1)c1cc2ccccc2cn1 | > 1000 nM | 40 nM | 12 nM | 26 nM | > 1000 nM |  | 10 mg/kg |  | ≤ 1 mg/kg | 3 mg/kg | 3 mg/kg |  |  | 
16 | O=C(NCCCCN1CCN(Cc2ccccc2)CC1)c1cc2ccccc2o1 | > 1000 nM | > 1000 nM | 560 nM | > 1000 nM | > 1000 nM |  |  |  |  |  |  |  |  | 
17 | COc1cccc(N2CCN(CCCCNC(=O)c3ccccc3)CC2)n1 | > 1000 nM | 110 nM | 55 nM | 6 nM | > 1000 nM |  | 10 mg/kg |  | 0.3 mg/kg | 10 mg/kg | 3 mg/kg |  |  | 
18 | O=C(NCCCCN1CCN(c2ccccc2)CC1)c1ccccn1 | > 1000 nM | 100 nM | 144 nM | 52 nM | > 1000 nM |  | 3 mg/kg |  | 1 mg/kg | > 3 mg/kg |  |  |  | 
19 | Cc1cccc(N2CCN(CCCCNC(=O)c3cc4ccccc4cn3)CC2)n1 | > 1000 nM | 28 nM | 46 nM | 2 nM | 57 nM |  |  |  |  |  |  |  |  | 
20 | O=C(NCCCCN1CCN(c2ccccc2)CC1)c1ccc2ccccc2n1 | > 1000 nM | 98 nM | 61 nM | 94 nM | 475 nM |  |  |  |  |  |  |  |  | 
21 | O=C(NCCCCN1CCN(c2cnc3ccccc3c2)CC1)c1cc2ccccc2cn1 | > 1000 nM | 1000 nM | 14 nM | > 1000 nM | 479 nM |  |  |  |  |  |  |  |  | 
22 | O=C(CCCN1CCC(O)(c2ccc(Cl)cc2)CC1)c1ccc(F)cc1 [HALOPERIDOL] |  |  |  |  |  |  |  |  |  |  |  |  | 0.08 mg/kg | 0.09 mg/kg
23 | O=C(NCCCCN1CCN(c2ccccn2)CC1)c1cc2ccccc2cn1 | 5600 nM | 822 nM | 41 nM | 16 nM | 1350 nM |  |  |  |  |  |  |  |  | 
24 | COc1cccc(N2CCN(CCCCNC(=O)c3c[nH]c4ccccc34)CC2)c1 | > 1000 nM | 164 nM | 40 nM | 59 nM | 602 nM |  |  |  |  |  |  |  |  | 

Now from value to compound, other results behind:

Row | Ki (D(2) dopamine receptor) | Ki [1] | Ki (D(3) dopamine receptor) | Ki [2] | Ki [3] | MED (Mus musculus [4]) | MED (Mus musculus [6]) | SMILES | minimal effective dose (Mus musculus [5]) | minimal effective dose (Mus musculus [7]) | minimal effective dose (Mus musculus [8]) | minimal effective dose (Mus musculus [9]) | Activity (Mus musculus [10]) | ED50 (Mus musculus [6]) | ED50 (Mus musculus [7])
25 | 76 nM | 18 nM | 0.3 nM | 15 nM | 79 nM |  |  | O=C(NCCCCN1CCN(c2ccccc2F)CC1)c1cc2ccccc2o1 |  |  |  |  |  |  | 
26 | > 1000 nM | 8 nM | 16 nM | 73 nM | 300 nM | 60 mg/kg |  | O=C(NCCCCN1CCN(c2ccc(F)cc2)CC1)c1cc2ccccc2cn1 | 60 mg/kg |  |  |  |  |  | 
27 | 53 nM | 4 nM | 0.2 nM | 1.9 nM | 22 nM |  |  | O=C(NCCCCN1CCN(c2cccc(C(F)(F)F)c2)CC1)c1cc2ccccc2[nH]1 |  |  |  |  |  |  | 
28 | 160 nM | 11 nM | 3 nM | 11 nM | 230 nM |  |  | O=C(NCCCCN1CCN(c2cccc(F)c2)CC1)c1cc2ccccc2cn1 |  |  |  |  |  |  | 
29 | > 1000 nM | 17 nM | 53 nM | 18 nM | 74 nM |  | 10 mg/kg | Cc1cccc(N2CCN(CCCCNC(=O)c3ccc4ccccc4n3)CC2)c1 |  | ≤ 1 mg/kg | > 10 mg/kg | 10 mg/kg | Toxic |  | 
30 | 58 nM | 3 nM | 0.9 nM | 0.7 nM | 6 nM |  |  | O=C(NCCCCN1CCN(c2cccc3ccccc23)CC1)c1ccccc1 |  |  |  |  |  |  | 
31 | > 1000 nM | 17 nM | 24 nM | > 1000 nM | 400 nM |  |  | O=C(NCCCCN1CCN(c2ccc(O)cc2)CC1)c1cc2ccccc2cn1 |  |  |  |  |  |  | 
32 | > 1000 nM | 27 nM | 24 nM | 2 nM | 61 nM |  |  | Cc1cccc(N2CCN(CCCCNC(=O)c3cc4ccccc4o3)CC2)n1 |  |  |  |  |  |  | 
33 | > 1000 nM | 5.1 nM | 159 nM | 43 nM | 73.4 nM |  |  | Cc1cccc(N2CCN(CCCCNC(=O)[C@@H]3CCc4ccccc4N3)CC2)c1 |  |  |  |  |  |  | 
34 |  | 15.3 nM |  | 11.9 nM | 206 nM |  |  | Cc1cccc(N2CCN(CCCCNC(=O)c3cc4ccccc4o3)CC2)c1 |  |  |  |  |  |  | 
35 | 85 nM | 3.6 nM | 0.4 nM | 4 nM | 17 nM |  |  | Cc1cccc(N2CCN(CCCCNC(=O)c3cc4ccccc4o3)CC2)c1C |  |  |  | 30 mg/kg | Toxic |  | 
36 | > 1000 nM | 22 nM | 45 nM | 85 nM | > 1000 nM |  |  | O=C(NCCCCN1CCN(c2ccccc2)CC1)[C@@H]1CCc2ccccc2N1 |  |  |  |  |  |  | 
